Source: EPA's ToxValDB 9.5
Values joined by “and” are separate entries in the source; they are usually repeats but may differ in a detail not shown here. Equal entries are not always repeated.

System: Rattus norvegicus
Settings: for LD50 / LC50: acute
[1] = short-term, duration: 28 days, oral, gavage, Wistar
[2] = short-term, duration: 28 days, oral, gavage, M, Sprague-Dawley
[3] = subchronic, duration: 13 weeks, oral, gavage, Sprague-Dawley
[4] = subchronic, duration: 90 days, oral, diet
[5] = reproduction developmental, duration: 83 days, oral, gavage, Sprague-Dawley

CC(C)(C)c1cccc(C(C)(C)C)c1O [2,6-Di-tert-butylphenol]
LD50 (oral, gavage): 6290 mg/kg | LD50 (oral, gavage, Sprague-Dawley): > 5000 mg/kg | NOAEL (developmental, oral, gavage, Wistar): > 750 mg/kg-day | NOAEL (reproduction developmental, oral, gavage, Wistar): 150 mg/kg-day | NOAEL [1]: 15 mg/kg-day

CCC(C)(N)C#N (centres undefined) [2-Amino-2-methyl-butyronitrile]
LC50 (inhalation, Crl:CD(SD) BR): 430 mg/m3 and 446 mg/m3 and 417 mg/m3 | LD50 (oral, gavage, Sprague-Dawley): 74 mg/kg

CC(C)(N)C#N [2-Amino-2-methylpropionitrile]
LD50 (oral, Sprague-Dawley): ≥ 10 mg/kg and ≤ 30 mg/kg | NOAEL (short-term, duration: 2 weeks, inhalation, M, Sprague-Dawley): 75.7 mg/m3

C=C(C)CC [2-Methylbutene]
LC50 (inhalation, Wistar): > 61000 ppm | NOAEL (reproduction developmental, inhalation, Sprague-Dawley): 7000 ppm

CCCCN(CCCC)c1ccc(C(=O)c2ccccc2C(=O)O)c(O)c1 [2-[4-(Dibutylamino)-2-hydroxybenzoyl]benzoic acid]
LD50 (dermal, Sprague-Dawley): > 2000 mg/kg | LD50 (oral, gavage, Sprague-Dawley): > 5000 mg/kg | LOAEL (reproduction developmental, duration: 21 weeks, oral, gavage, M, Sprague-Dawley): 250 mg/kg-day | LOAEL (reproduction developmental, duration: 21 weeks, oral, gavage, Sprague-Dawley, generation: F1): 250 mg/kg-day | LOAEL [2]: 1000 mg/kg-day | LOAEL [3]: 250 mg/kg-day | NOAEL [3]: 50 mg/kg-day

N#Cc1nc(Cl)c(Cl)c(Cl)c1Cl [3,4,5,6-Tetrachloropyridine-2-carbonitrile]
LD50 (oral, gavage): ≥ 1000 mg/kg and ≤ 2000 mg/kg

O=P(CCCl)(OCCCl)OCCCl [Bis(2-chloroethyl) 2-chloroethylphosphonate]
LD50 (oral, gavage, Sprague-Dawley): 580 mg/kg and 810 mg/kg | NOAEL (developmental, duration: 14 days, oral, gavage, Sprague-Dawley): ≤ 600 mg/kg-day | NOAEL (reproduction developmental, duration: 14 days, oral, gavage, F, Sprague-Dawley): 400 mg/kg-day

COc1cc(NC(=O)C(N=Nc2ccc(-c3ccc(N=NC(C(C)=O)C(=O)Nc4cc(OC)c(Cl)cc4OC)c(Cl)c3)cc2Cl)C(C)=O)c(OC)cc1Cl (centres undefined) [C.I. Pigment Yellow 83]
LD50 (oral, gavage): > 1750 mg/kg | NOAEL (chronic, duration: 104 weeks, oral, gavage, Sprague-Dawley): 630 mg/kg-day

CCCCCCCCCCc1cc(Oc2ccc(S(=O)(=O)O)cc2)ccc1S(=O)(=O)O [Decyl(sulfophenoxy)benzenesulfonic acid]
LD50 (oral, gavage, Fischer 344): ≥ 1000 mg/kg and ≤ 2000 mg/kg | LD50 (oral, gavage, Sprague-Dawley): 3010 mg/kg

CCCCCCCCCCCCCOC(=O)CCSCCC(=O)OCCCCCCCCCCCCC [Di(tridecyl) thiodipropionate]
LD50 (oral): > 2000 mg/kg

CC(C)CCCCCCCOC(=O)CCCCCCCC(=O)OCCCCCCCC(C)C [Diisodecyl azelaate]
LD50 (oral, gavage, Wistar): > 2000 mg/kg

O=[N+]([O-])c1ccc(C=Cc2ccc([N+](=O)[O-])cc2S(=O)(=O)[O-])c(S(=O)(=O)[O-])c1.[Na+].[Na+] [Disodium 4,4'-dinitro-2,2'-stilbenedisulfonate]
LD50 (oral): > 16000 mg/kg

CCCCCCC(C)(C)C(=O)OCC1CO1 (centres undefined) [Glycidyl neodecanoate]
LD50 (dermal, Wistar): > 4000 mg/kg | LD50 (oral, gavage, Wistar): > 10000 mg/kg

CC(C)N.CCCCCCCCCC(CC)c1ccc(S(=O)(=O)O)cc1 (centres undefined) [Isopropylammonium dodecylbenzenesulfonate]
LD50 (oral): 1840 mg/kg | LD50 (oral, gavage, Sprague-Dawley): 1300 mg/kg

CCCCCCC([O-])CCCCCCCCCCC(=O)OC.[Li+] (centres undefined) [Lithium methyl 12-hydroxystearate]
NOAEL (reproduction developmental, duration: 0 days, dermal, non-occlusive, F, Sprague-Dawley): > 2000 mg/kg-day | NOAEL (reproduction developmental, duration: 10 weeks, dermal, non-occlusive, M, Fischer 344): < 500 mg/kg-day | NOAEL (subchronic, duration: 13 weeks, dermal, non-occlusive, F, Sprague-Dawley): 500 mg/kg-day

CC12CCCCC1C(=O)OC2=O (centres undefined) [Methylhexahydrophthalic anhydride]
LD50 (oral): 3300 mg/kg

Clc1nc(Cl)c(Cl)c(Cl)c1Cl [Pentachloropyridine]
LD50 (oral, gavage, Fischer 344): 435 mg/kg | NOAEL (reproduction developmental, duration: 15 days, oral, gavage, F, Sprague-Dawley): 50 mg/kg-day | LOAEL [4]: 30 mg/kg-day | NOAEL [4]: 10 mg/kg-day

OP(O)c1ccccc1 [Phenylphosphinic acid]
LD50 (oral, gavage): 1470 mg/kg and 1710 mg/kg | NOAEL (subchronic, duration: 31 days, oral, diet): 960 mg/kg-day

O=S(=O)([O-])CCO.[Na+] [Sodium 2-hydroxyethanesulfonate]
LD50 (oral, gavage, Wistar): > 5000 mg/kg

CCCCCCCCC(=O)Oc1ccccc1S(=O)(=O)[O-].[Na+] [Sodium (nonanoyloxy)benzenesulfonate]
LOAEC [5]: 100 mg/kg-day | NOAEL [5]: 1000 mg/kg-day

CCCCCCCC/C=C\CCCCCCCC(=O)OC[C@@H](OC(=O)CCCCCCC/C=C\CCCCCCCC)[C@H]1OC[C@H](O)[C@H]1OC(=O)CCCCCCC/C=C\CCCCCCCC [Sorbitan trioleate]
LD50 (oral, gavage, Wistar): > 39800 mg/kg

CCCCCCC(=O)OCCOCCOCCOCCOC(=O)CCCCCC [Tetraethylene glycol diheptanoate]
LD50 (oral, gavage, ChR:CD): > 25000 mg/kg | LD50 (oral, gavage, ChRCD): > 25000 mg/kg | LD50 (oral, gavage, Crl:CD(SD)): > 24500 mg/kg | LD50 (oral, gavage, Wistar): > 2000 mg/kg | LOAEL (short-term, duration: 4 weeks, inhalation, Wistar): 1.1 mg/L | NOAEL [1]: 1000 mg/kg-day

CCCCCCCCCCOC1CCS(=O)(=O)C1 (centres undefined) [Thiophene, 3-(decyloxy)tetrahydro-, 1,1-dioxide]
NOAEL [2]: 100 mg/kg-day
